# In patent US6814967B2, “Antibodies to cortistatin: neuropeptides, compositions and methods” (The Scripps Research Institute, priority 1996, dated 2004):
# What was measured:
# [1] = tested on: somatostatin receptors on GH4 pituitary cells; assay: Displacement of 125I-somatostatin-14 bound to GH4 pituitary cells; type: binding; conditions: for displacement of 125I-somatostatin: GH4 cells, control peptides; for Kd: GH4 pituitary cells, four independent experiments, read-out: estimated Kd, displacement of 125I-somatostatin-14 binding
# Experimental: To determine the binding specificity of cortistatin and in view of its similarity to somatostatin, assays to assess the binding of chemically synthesized, linear cortistatin-14 peptide prepared in Example 2 to somatostatin receptors on GH4 pituitary cells were performed.
# GH4 cells, obtained from Dr. Kaare M. Gautvik (University of Oslo) or ATCC, were grown in MEM medium with 12% fetal calf serum in 6-well plates at 10^6 cells/ml. Each well then received 10^6 cpm/ml of ^125I somatostatin-14 (NEN, DuPont, Wilmington, Del.) alone or with increasing concentrations of somatostatin-14 peptide (Sigma) or cortistatin-14 peptide (95%, purified by reverse phase HPLC ranging from 10^−10 M to 10^−6 M. Aprotinin and leupeptin (Sigma; […]) was included as it reduced non-specific binding to 20% of total bound radioactivity. The binding of ^125I somatostatin in the presence of 10^−7 M somatostatin was considered as unspecific binding as described by Schonbrunn et al., J. Biol. Chem., 235:6473-6483 (1978).
# [2] = tested on: endogenous somatostatin receptors expressed by GH4 cells; assay: cAMP assay in GH4 cells stimulated with VIP or TRH; type: cell-based
# Experimental: To investigate whether cortistatin modulates somatostatin receptor activation, the concentration of cyclic AMP (cAMP) was determined following stimulation of GH4 cells with VIP or TRH in the presence or absence of either cortistatin or somatostatin.
# For the cAMP assays, GH4 cells were grown under the same conditions as for the binding assays. The cells were washed with MEM without serum, but containing leupeptin, aprotinin and 1 mM 3-isobutyl-methyl-xantine (IBMX). The cells were pretreated with somatostatin-14 and cortistatin-14 for 15 minutes before VIP at 10^−6 M was added or TRH at 10^−7 M. To each well, ^3H cyclic AMP was added before the content was removed, to calculate recovery. For cAMP measurements, a RIA kit (Amersham, Arlington Heights, Ill.) was used according to the instructions of the manufacturer. Each time point represents 2-4 replicates and the experiments were carried out twice.
# [3] = tested on: hippocampal CA1 pyramidal cells; assay: Current-clamp intracellular recording in hippocampal slices; type: cell-based, rat; conditions: for time to maximum steady effect (time-to-peak) after onset of the response: hippocampal slice CA1 neurons, superfusion
# Experimental: Somatostatin is known to hyperpolarize central neurons by increasing potassium conductances as described by Inoue et al., J. Physiol., 407:177-198 (1988), including the voltage-dependent potassium M current (see Moore et al., Science, 239:278-280 (1988) and Jacquin et al., Proc. Natl. Acad. Sci., USA, 85:948-952 (1988)). To complete the characterization of the physiological role of cortistatin, assays were performed to determine whether cortistatin had somatostatin-like effects on hippocampal neurons by means of current- and voltage-clamp recordings in the hippocampal slice preparation.
# Intracellular recordings were obtained in rat hippocampal slices using sharp glass micropipettes as previously described by Schweitzer et al., J. Neurosci., 13:2033-2049 (1993). Recordings were made from 11 hippocampal CA1 pyramidal cells with an average resting membrane potential of −70 Å 1 mV (mean Å s.e.m.) and action potential of 103 Å 2 mV. Current-clamp recording of a CA1 neuron manually depolarized to −65 mV (resting membrane potential was −70 mV) to elicit action potential firing (upward deflections, truncated) is shown in FIG. 6A.
# Superfusion of […] cortistatin-14 peptide (bar above record), prepared as described in Example 3, like somatostatin-14, hyperpolarized these neurons (10 of 11 cells), in association with inhibition of action potential firing, followed by recovery to control levels upon washout of the peptide. Unlike somatostatin, the cortistatin-14-mediated effect developed slowly, reaching a maximum steady effect six to eight minutes after the onset of the response. This contrasted with the time-to-peak of somatostatin′s effect on these neurons under the same experimental conditions that was much shorter (2-3 minutes).
# hippocampal CA1 neurons = assay: Paired-pulse (PP) responses in CA1 neurons in vivo, iontophoretic application; parameters: species or system rat; conditions: for effect on PP responses (PP inhibition) in CA1: applied alone iontophoretically, ACh 0.9 M, somatostatin 1.5 mM, 80 ms interstimulus interval
# Source text: Stimulation intensity was adjusted after drug treatment to achieve control PS amplitudes before performing PP studies.
# [4] = tested on: voltage-dependent potassium M current (IM); assay: Voltage-clamp recording of M current (IM) relaxation in CA1 neurons; type: cell-based, rat; parameters: dose or concentration left out as unconfirmed; conditions: 7 minutes superfusion; CA1 neuron held at −43 mV
# Source text: To determine the mechanism of the cortistatin-induced inhibition, we assessed the effect of cortistatin on the M current (IM), a non-inactivating voltage-dependent potassium current seen in hippocampal neurons as described by Halliwell et al., Brain Res., 250:71-92 (1982).
# In voltage clamp assays, the IM relaxation was observed by applying hyperpolarizing steps (5 to 25 mV) from a holding potential of −43 to −48 mV.
# CA1 pyramidal neurons = assay: Population spike amplitudes in CA1 in vivo, iontophoretic application, anesthetized rats; parameters: species or system rat; conditions: microiontophoretic application, 1 mg/ml in saline; half-maximal and maximal stimulation; P<0.05
# Experimental: The inhibitory effects of cortistatin on the excitability of CA1 pyramidal neurons as viewed by population spike (PS) amplitudes was paralleled in vivo in the anesthetized preparation. For the in vivo studies, male Sprague-Dawley rats were anesthetized with halothane (0.9-1.1%). The commisural pathway was stimulated and elicited field potentials in the CA1 region essentially as described by Steffensen et al., Brain Res., 538:46-53 (1991). Cortistatin (1 mg/ml) was dissolved in saline and administered iontophoretically through one barrel of a multibarreled micropipette. […] Asterisks represent significance levels at P<0.05. The data was compiled with software (LabView Instruments, National Instruments, Austin, Tex.) as described by Steffensen et al., Brain Res., 538:46-53 (1991).
# Stimulation of the monosynaptic afferent input to the CA1 region evoked a characteristic population spike (PS) that represents the synchronous firing of pyramidal cells, superimposed on a field synaptic potential waveform as described by Anderson et al., Exp. Brain Res., 13:208-221 (1971).
# [5] = tested on: sleep-wake cycle of the rat; assay: Intracerebroventricular administration, EEG and sleep-wake cycle of the rat; type: in vivo
# Source text: As cortistatin is expressed in interneurons located in the cerebral cortex and hippocampus, its effects on cortical measures of neuronal excitability was next determined in vivo. Up to 6 nmoles of HPLC-purified synthetic cortistatin-14 peptide prepared in Example 3 were infused into the brain ventricles of rats (n=5) and recorded the electroencephalogram (EEG) for four hours after peptide injection. […] Standard methodologies for chronic electrophysiological preparation and data acquisition were used. Procedures for EEG recordings and PP studies are as described by Prospero-Garcia et al., Pharmacol. Biochem. Behav., 49:413 (1994) and Steffensen et al., Brain Res., 652:149 (1994).
# FIGS. 7A-1, 7A-2, 7A-3 and 7A-4 show the effects of the intracerebroventricular administration of cortistatin on the sleep-wake cycle of the rat. FIGS. 7A-1, 7A-2, 7A-3 and 7A-4 respectively illustrate wakefulness, slow-wave sleep 1, slow-wave sleep 2 and REM sleep. The effects of the sleep cycle were assessed with cortistatin-14 dosages at 100 ng, 500 ng, […] as plotted from left to right in the bar graphs as shown against saline control. Asterisks represent significance levels of P<0.05; ANOVA.
# [6] = tested on: cerebral cortex (visual cortex) local EEG; assay: Local EEG activity in visual cortex of anesthetized rats, microiontophoretic application; type: in vivo, rat
# Experimental: To investigate further whether cortistatin also interacts with cholinergic systems that regulate cortical function, the effects of cortistatin on ACh-induced desynchronization of EEG in the cerebral cortex of anesthetized rats was determined. Thus, ACh and cortistatin was microiontophoretically (100-250 nA) applied on local EEG activity recorded in the visual cortex. For the data shown in FIG. 7G, the results from the experimental groups were derived from averaged EEG spectral activity determinations and expressed as means Å s.e.m. (Asterisk represents significance levels P<0.05 from baseline; two asterisks represent significance levels P<0.05 from ACh; ANOVA).
# [7] = molecular target: somatostatin receptor 1 (SSTR1) (Homo sapiens, UniProt P30872); assay: Binding studies to cloned somatostatin receptors
# SSTR 2-5 = assay: Binding studies to cloned somatostatin receptors; conditions: relative to somatostatin
# [8] = peptide alone at 10^−6 M, compared to control
# Sequence of somatostatin receptor 1 (SSTR1) (P30872 whole entry, species assumed): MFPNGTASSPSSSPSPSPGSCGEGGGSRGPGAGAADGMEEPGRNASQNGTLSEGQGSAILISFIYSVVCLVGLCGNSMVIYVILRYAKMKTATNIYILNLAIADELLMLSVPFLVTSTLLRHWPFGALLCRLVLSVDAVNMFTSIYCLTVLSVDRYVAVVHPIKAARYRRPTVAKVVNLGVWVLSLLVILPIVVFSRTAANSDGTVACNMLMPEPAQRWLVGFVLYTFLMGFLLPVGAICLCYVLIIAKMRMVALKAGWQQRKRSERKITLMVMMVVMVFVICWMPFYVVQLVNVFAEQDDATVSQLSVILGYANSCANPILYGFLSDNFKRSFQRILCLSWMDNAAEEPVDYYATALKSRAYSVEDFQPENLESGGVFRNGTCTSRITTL
compound,measurement,setting,value
"vasoactive intestinal peptide (HSDAVFTDNYTRLRKQMAVKKYLNSILN) [VIP, control peptide and cAMP stimulator (Bachem)]",displacement of 125I-somatostatin,[1],did not show any displacement
same,intracellular concentration of cAMP,[2]; [8],increased
"C[C@H](N)C(=O)NCC(=O)N[C@H]1CSSC[C@@H](C(=O)O)NC(=O)[C@H](CO)NC(=O)[C@H]([C@@H](C)O)NC(=O)[C@H](Cc2ccccc2)NC(=O)[C@H]([C@@H](C)O)NC(=O)[C@H](CCCCN)NC(=O)[C@H](Cc2c[nH]c3ccccc23)NC(=O)[C@H](Cc2ccccc2)NC(=O)[C@H](Cc2ccccc2)NC(=O)[C@H](CC(N)=O)NC(=O)[C@H](CCCCN)NC1=O [somatostatin-14, reference compound]",Kd,[1],5 nM
same,intracellular concentration of cAMP,[2]; [8],no effect
same,time to maximum steady effect (time-to-peak) after onset of the response,[3],2 to 3 min
same,effect on PP responses (PP inhibition) in CA1,hippocampal CA1 neurons,markedly decreased PP inhibition
"14-residue peptide of SEQ ID NO 8 (PCKNFFWKTFSSCK), same sequence for rat and mouse, chemically synthesized [cortistatin-14]",Kd,[1],5 nM
same,intracellular concentration of cAMP,[2]; [8],no effect
same,time to maximum steady effect (time-to-peak) after onset of the response,[3],six to eight
same,effect on membrane potential of CA1 neurons,"[3]; superfusion of 1 M, 10 of 11 cells, inhibition of action potential firing, recovery on washout",hyperpolarized
same,increase of the amplitude of the IM relaxation,[4],60%
same,population spike (PS) amplitudes,CA1 pyramidal neurons,significantly decreased
same,EEG cortical slow waves (1-4 Hz),[5]; infused into brain ventricles of rats,dramatic increase
same,spontaneous behavior,"[5]; infused into brain ventricles of rats, compared to saline-injected rats",clear hypoactive behavior
same,share of the four hour recording time in slow-wave sleep,"[5]; intracerebroventricular, 40% in saline-treated control animals",up to 75%
same,paradoxical (REM) sleep,"[5]; intracerebroventricular, highest dose",significant reduction
same,effect on PP responses (PP inhibition) in CA1,hippocampal CA1 neurons,no significant effects
same,effect on the ACh-induced reduction of PP inhibition,"hippocampal CA1 neurons; simultaneous iontophoretic application with ACh, P<0.05",completely antagonized
same,local EEG (averaged EEG power spectra),"[6]; applied alone, 100-250 nA, visual cortex, anesthetized rats",not different from baseline
same,effect of ACh on local EEG (increase in fast frequency activity),[6]; simultaneous electrophoretic application with ACh,effectively prevented
same,affinity for somatostatin receptor 1 (SSTR1),[7],comparable to somatostatin
same,affinity for SSTR 2-5,SSTR 2-5,far lesser affinity
"thryoid releasing hormone (QHP) [TRH, control peptide and cAMP stimulator (Calbiochem)]",displacement of 125I-somatostatin,[1],did not show any displacement
same,intracellular concentration of cAMP,[2]; peptide alone at 10^−7 M,increased
